Results: PMC8811472, “Systematic In Vitro Evaluation of a Library of Approved and Pharmacologically Active Compounds for the Identification of Novel Candidate Drugs for KMT2A-Rearranged Leukemia” (Frontiers in Oncology, 2022)
pIC50: −log10 of the molar value.

Columns and labels:
PER-485 cells [1] = assay: Annexin V/7-AAD flow cytometry, PER-485; type: cell-based, human; conditions: KMT2A-r leukemia cells (PER-485)
Experimental: (§1) The cytotoxicity of drugs was assessed through resazurin-based assays and the inhibitory concentration resulting in 50% reduction of cell survival relative to control (IC50) was calculated as previously described ([7]). In synergy studies, cells were exposed to a dilution series of compounds, as single agents or in combination, in resazurin-based assays (72 hours) as described ([8]–[10]). The occurrence of synergy was determined with the Bliss Independence model as previously described ([8]–[10]). Bliss Prediction curves indicated the predicted percentage viability of the cells when exposed to the combination of compounds if both compounds work additively together. Synergy was visualised as the presence of a lower cell viability upon combination of two compounds compared to the viability predicted based on the presence of an additive effect of the compounds (i.e., the viability curve of the combination runs below the Bliss Prediction curve). The percentage of apoptotic cells was assessed by annexin V and 7-Aminoactinomycin D (7-AAD) (BD Biosciences, Australia) flow cytometry as previously described ([7]).

KELLY cells = assay: 72-hour resazurin-based cytotoxicity assay, KELLY; type: cell-based, human; conditions: Homo sapiens, neuroblastoma
Experimental: (§2) All cell lines used in this study were mycoplasma-free and have been authenticated using STR profiling. Cells were cultured as previously described ([7], [8]). Characteristics of the leukemia cell lines used in this study are described in Supplementary Table 1 . Peripheral blood mononuclear cells from healthy donors were purchased from Australian Red Cross.
as §1, with “The percentage of apoptotic cells was assessed by annexin V and 7-Aminoactinomycin D (7-AAD) (BD Biosciences, Australia) flow cytometry as previously described ([7]).” left out

KP-MO-TS cells = assay: 72-hour resazurin-based cytotoxicity assay, KP-MO-TS; type: cell-based, human; conditions: Homo sapiens, CALM-AF10, AML
Experimental: as §2
as §1, with “The percentage of apoptotic cells was assessed by annexin V and 7-Aminoactinomycin D (7-AAD) (BD Biosciences, Australia) flow cytometry as previously described ([7]).” left out

REH cells = assay: 72-hour resazurin-based cytotoxicity assay, REH; set-up: species or system human; conditions: Homo sapiens, KMT2A-wt, pre-B cell ALL
Experimental: as §2, §1

RS4;11 cells = assay: 72-hour resazurin-based cytotoxicity assay, RS4;11; set-up: species or system human; conditions: RS4;11, KMT2A-r t(4;11), pre-B cell ALL
Experimental: as §2, §1

LNCaP cells = assay: 72-hour resazurin-based cytotoxicity assay, LNCaP; type: cell-based, human; conditions: Homo sapiens, prostate carcinoma
Experimental: as §2
as §1, with “The percentage of apoptotic cells was assessed by annexin V and 7-Aminoactinomycin D (7-AAD) (BD Biosciences, Australia) flow cytometry as previously described ([7]).” left out

[2] = test system: peripheral blood mononuclear cells from healthy donors; assay: 72-hour resazurin-based viability assay, PBMC from healthy donors; type: cell-based, human; conditions: Homo sapiens, PBMC, 72 h, 72 h resazurin
Experimental: as §2, §1

MV4;11 cells = assay: 72-hour resazurin-based cytotoxicity assay, MV4;11; type: cell-based, human; conditions: Homo sapiens, MV4;11, KMT2A-r t(4;11), childhood AML
Experimental: as §2
as §1, with “The percentage of apoptotic cells was assessed by annexin V and 7-Aminoactinomycin D (7-AAD) (BD Biosciences, Australia) flow cytometry as previously described ([7]).” left out

CEM cells = assay: 72-hour resazurin-based cytotoxicity assay, CEM; set-up: species or system human; conditions: Homo sapiens, CCRF-CEM, KMT2A-wt, childhood T-cell ALL
Experimental: as §2, §1

THP-1 cells = assay: 72-hour resazurin-based cytotoxicity assay, THP-1; type: cell-based, human; conditions: Homo sapiens, THP-1, KMT2A-r t(9;11), infant AML
Experimental: as §2, §1

27/87 cells = assay: 72-hour resazurin-based cytotoxicity assay, 27/87; type: cell-based, human; conditions: Homo sapiens, 27/87, endometrioid ovarian cancer
Experimental: as §2
as §1, with “The percentage of apoptotic cells was assessed by annexin V and 7-Aminoactinomycin D (7-AAD) (BD Biosciences, Australia) flow cytometry as previously described ([7]).” left out

PER-826 cells = assay: 72-hour resazurin-based cytotoxicity assay, PER-826; type: cell-based, human; conditions: Homo sapiens, PER-826, KMT2A-r complex t(11;19), infant ALL
Experimental: as §2
as §1, with “The percentage of apoptotic cells was assessed by annexin V and 7-Aminoactinomycin D (7-AAD) (BD Biosciences, Australia) flow cytometry as previously described ([7]).” left out

U937 cells = assay: 72-hour resazurin-based cytotoxicity assay, U937; type: cell-based, human; conditions: Homo sapiens, U-937, U937, CALM-AF10, AML
Experimental: as §2
as §1, with “The percentage of apoptotic cells was assessed by annexin V and 7-Aminoactinomycin D (7-AAD) (BD Biosciences, Australia) flow cytometry as previously described ([7]).” left out

MCF-7 cells = assay: 72-hour resazurin-based cytotoxicity assay, MCF-7; type: cell-based, human; conditions: Homo sapiens, MCF7, MCF-7, breast adenocarcinoma
Experimental: as §2
as §1, with “The percentage of apoptotic cells was assessed by annexin V and 7-Aminoactinomycin D (7-AAD) (BD Biosciences, Australia) flow cytometry as previously described ([7]).” left out

Jurkat cells = assay: 72-hour resazurin-based cytotoxicity assay, Jurkat; set-up: species or system human; conditions: Homo sapiens, KMT2A-wt, childhood T-cell ALL
Experimental: as §2, §1

HEY cells = assay: 72-hour resazurin-based cytotoxicity assay, HEY; type: cell-based, human; conditions: Homo sapiens, ovarian carcinoma
Experimental: as §2
as §1, with “The percentage of apoptotic cells was assessed by annexin V and 7-Aminoactinomycin D (7-AAD) (BD Biosciences, Australia) flow cytometry as previously described ([7]).” left out

SEMK2 cells = assay: 72-hour resazurin-based cytotoxicity assay, SEMK2; set-up: species or system human; conditions: Homo sapiens, SEMK2, KMT2A-r t(4;11), pre-B cell childhood ALL
Experimental: as §2, §1

KOPN-8 cells = assay: 72-hour resazurin-based cytotoxicity assay, KOPN-8; set-up: species or system human; conditions: Homo sapiens, KOPN-8, KMT2A-r t(11;19), infant pre-B cell ALL
Experimental: as §2
as §1, with “The percentage of apoptotic cells was assessed by annexin V and 7-Aminoactinomycin D (7-AAD) (BD Biosciences, Australia) flow cytometry as previously described ([7]).” left out

H460 cells = assay: 72-hour resazurin-based cytotoxicity assay, H460; type: cell-based, human; conditions: Homo sapiens, NCI-H460, H460, lung carcinoma
Experimental: as §2
as §1, with “The percentage of apoptotic cells was assessed by annexin V and 7-Aminoactinomycin D (7-AAD) (BD Biosciences, Australia) flow cytometry as previously described ([7]).” left out

PER-485 cells [3] = assay: 72-hour resazurin-based cytotoxicity assay, PER-485; type: cell-based, human; conditions: Homo sapiens, PER-485, KMT2A-r t(4;11), infant ALL derived
Experimental: as §2, §1

WI-38 cells = assay: 72-hour resazurin-based cytotoxicity assay, WI-38; type: cell-based, human; conditions: Homo sapiens, WI-38, non-malignant, normal lung
Experimental: as §2
as §1, with “The percentage of apoptotic cells was assessed by annexin V and 7-Aminoactinomycin D (7-AAD) (BD Biosciences, Australia) flow cytometry as previously described ([7]).” left out

PER-785 cells = assay: 72-hour resazurin-based cytotoxicity assay, PER-785; type: cell-based, human; conditions: Homo sapiens, PER-785, KMT2A-r t(4;11), infant ALL
Experimental: as §2
as §1, with “The percentage of apoptotic cells was assessed by annexin V and 7-Aminoactinomycin D (7-AAD) (BD Biosciences, Australia) flow cytometry as previously described ([7]).” left out

BE(2)C cells = assay: 72-hour resazurin-based cytotoxicity assay, BE(2)C; type: cell-based, human; conditions: Homo sapiens, childhood neuroblastoma
Experimental: as §2
as §1, with “The percentage of apoptotic cells was assessed by annexin V and 7-Aminoactinomycin D (7-AAD) (BD Biosciences, Australia) flow cytometry as previously described ([7]).” left out

PER-490 cells = assay: 72-hour resazurin-based cytotoxicity assay, PER-490; type: cell-based, human; conditions: Homo sapiens, PER-490, KMT2A-r t(4;11), infant ALL
Experimental: as §2
as §1, with “The percentage of apoptotic cells was assessed by annexin V and 7-Aminoactinomycin D (7-AAD) (BD Biosciences, Australia) flow cytometry as previously described ([7]).” left out

[4] = test system: KMT2A-r and CALM-AF10 translocated leukemia cell lines; assay: Cytotoxicity in expanded cell line panel (range over sensitive lines); type: cell-based; conditions: Homo sapiens; 9 out of 11 KMT2A-r leukemia cell lines
Experimental: as §2
as §1, with “The percentage of apoptotic cells was assessed by annexin V and 7-Aminoactinomycin D (7-AAD) (BD Biosciences, Australia) flow cytometry as previously described ([7]).” left out

MOLM-13 cells = assay: 72-hour resazurin-based cytotoxicity assay, MOLM-13; type: cell-based, human; conditions: Homo sapiens, MOLM-13, KMT2A-r t(9;11), AML
Experimental: as §2, §1

MRC-5 cells = assay: 72-hour resazurin-based cytotoxicity assay, MRC-5; type: cell-based, human; conditions: Homo sapiens, MRC5, MRC-5, non-malignant, normal lung
Experimental: as §2, §1

PER-703 cells = assay: 72-hour resazurin-based cytotoxicity assay, PER-703; type: cell-based, human; conditions: Homo sapiens, PER-703, KMT2A-r t(1;11), infant ALL derived
Experimental: as §2
as §1, with “The percentage of apoptotic cells was assessed by annexin V and 7-Aminoactinomycin D (7-AAD) (BD Biosciences, Australia) flow cytometry as previously described ([7]).” left out

For `Nc1nc(Cl)nc2c1ncn2[C@@H]1O[C@H](COP(=O)(O)OP(=O)(O)OP(=O)(O)O)[C@@H](O)[C@H]1O` [2-Cl-ATP, 2-chloroadenosine triphosphate], the “induction of apoptosis (annexin V/7AAD)” value (PER-485 cells [1]) was “inducing apoptosis”, the pIC50 (KELLY cells) was under 4.70 and the pIC50 (KP-MO-TS cells) was 5.36. It also gave a pIC50 (REH cells) of under 4.70, a pIC50 (RS4;11 cells; Homo sapiens, RS4-11, 72 h) of 5.24 and a pIC50 (RS4;11 cells) of 5.23. It also gave a pIC50 (LNCaP cells) of 4.83, a pIC50 ([2]; Donor 1) of 5.27 and a pIC50 ([2]; Donor 2) of 5.32. The pIC50 ([2]; Donor 3) was 5.38, the pIC50 (MV4;11 cells) was 5.57 and the pIC50 (CEM cells) was 4.94. It also gave a pIC50 (THP-1 cells) of under 4.70, a pIC50 (27/87 cells) of under 4.70 and a pIC50 (PER-826 cells) of 5.59. The pIC50 (U937 cells) was 5.46, the pIC50 (MCF-7 cells) was under 4.70 and the pIC50 (Jurkat cells) was under 4.70. The pIC50 (HEY cells) was under 4.70, the pIC50 (SEMK2 cells) was 5.29 and the pIC50 (KOPN-8 cells) was 4.87. It also gave a pIC50 (H460 cells) of under 4.70, a pIC50 (PER-485 cells [3]) of 5.60 and a pIC50 (WI-38 cells) of under 4.70. For the same compound, the pIC50 (PER-785 cells) was 5.46, the pIC50 (BE(2)C cells) was under 4.70 and the pIC50 (PER-490 cells) was 5.35. For the same compound, the pIC50 [4] was 5.23 to 5.60, the pIC50 (MOLM-13 cells) was 5.25 and the pIC50 (MRC-5 cells) was under 4.70. For the same compound, the pIC50 (PER-703 cells) was 5.37.
